According to patent publication US20120309683A1, “USE OF […] ADENYLATE CYCLASE-ACTIVATING POLYPEPTIDE (PACAP) AND PACAP ANALOGS AS ADJUNCTIVE TREATMENTS WITH INHIBITORS OF CALCINEURIN OR INHIBITORS OF THE […] TARGET OF RAPAMYCIN (mTOR) COMPLEXES” (The Administrators of the Tulane Educational Fund, priority 2010, published 2012):
Where no end group is shown, it is not given here. [ ]: non-standard residue; d: D form. The star is where a group is joined. Palmitoyl = CCCCCCCCCCCCCCCC(=O)*; Aib = CC(C)(N)C(=O)O

Tests used:
[1] = system: HK-2 human kidney cells (human renal proximal tubule epithelial cells); experiment: Sirolimus-induced apoptotic cell death of HK-2 cells, histone-associated DNA fragmentation; assay type: cell-based; conditions: 100 ng/ml sirolimus for 24 hours, HK-2 cells
Procedure: The HK-2 human kidney cells were cultured in Keratinocyte-Serum Free Medium supplemented with recombinant epidermal growth factor and bovine pituitary extract. The dose-dependent inhibitory effect of PACAP38 on apoptotic cell death was assessed by the quantitative determination of cytoplasmic histone-associated DNA-fragmentation (mono- and oligonucleosomes) after exposure to 100 ng/ml of sirolimus for 24 hours. Each value represents the mean plus/minus the standard error of eight determinations. **p<0.01 and *p<0.05 compared to the cells treated only with sirolimus.

[2] = system: light-chain immunoglobulin-secreting human multiple myeloma cells; experiment: Proliferation of multiple myeloma cells with sirolimus, bromodeoxyuridine incorporation; assay type: cell-based; conditions: multiple myeloma cells with sirolimus, 10^−9 M to 10^−6 M peptide, 24-hour incubation
Procedure: The light-chain immunoglobulin-secreting human multiple myeloma cells were cultured in RPMI 1640 medium supplemented with 10% non-inactivated fetal bovine serum and 0.05 mM 2-mercaptoethanol. The effects of PACAP38, PACAP27 and PACAP analogs on myeloma cell proliferation were assessed by determining incorporation of bromodeoxyuridine into DNA during cell division. The number of myeloma cells approximately doubled during the 24-hour incubation period in the absence of treatment with PACAP-like peptides. Four different concentrations, ranging from 10^−9 M to 10^−6 M, were tested for PACAP38, PACAP27 and each of the PACAP analogs. Each value represents the mean plus/minus the standard error of four determinations. **p<0.01 and *p<0.05 compared to the cells treated only with sirolimus.
The effects of PACAP38, PACAP27 and PACAP analogs on human cell proliferation were assessed by determining incorporation of bromodeoxyuridine into DNA during cell division. […] At the highest dose (10^−6 M), PACAP38 inhibited the proliferation by more than 50%.

[3] = system: MCF-7 human breast cancer cells; conditions: nude mice; cited from earlier work
[4] = system: PC-3 human prostate cancer cells; conditions: nude mice; cited from earlier work
[5] = system: NCI-H838 human non-small cell lung cancer cells; conditions: nude mice; cited from earlier work
[6] = system: Jurkat human T-lymphocyte cells; experiment: Mitogen-stimulated secretion of interleukin-2 from Jurkat cells; assay type: cell-based; conditions: PHA and PMA stimulated Jurkat cells, 24 hours
Procedure: The Jurkat human T-lymphocyte cells were cultured in RPMI 1640 medium supplemented with 10% heat-inactivated fetal calf serum. The Jurkat cells were stimulated with the mitogens phytohemagglutinin (PHA, 1 mg/ml) and phorbol 12-myristate 13-acetate (PMA, 50 ng/ml). […] Each value represents the mean plus/minus the standard error of eight determinations. **p<0.01 and *p<0.05 compared to the cells treated only with the mitogens.
(§1) However, when Jurkat cells were stimulated with PHA and PMA, large quantities of interleukin-2 could be detected in the medium (FIG. 9). […] At the highest dose (10^−5 M), PACAP38 inhibited the proliferation of the Jurkat cells by more than 50%.

[7] = system: HK-2 human kidney cells (human renal proximal tubule epithelial cells); experiment: Tacrolimus-induced loss of viability of HK-2 cells, lactate dehydrogenase in intact cells; assay type: cell-based; conditions: various concentrations of peptide added to medium
Procedure: The HK-2 human kidney cells were cultured in Keratinocyte-Serum Free Medium supplemented with recombinant epidermal growth factor and bovine pituitary extract. […] Each value represents the mean plus/minus the standard error of five determinations. **p<0.01 and *p<0.05 compared to the cells treated only with tacrolimus.

[8] = system: Jurkat human T-lymphocyte cells; experiment: Proliferation of Jurkat cells, bromodeoxyuridine incorporation; assay type: cell-based; conditions: mitogen-stimulated Jurkat cells, 24 hours
Procedure: The Jurkat human T-lymphocyte cells were cultured in RPMI 1640 medium supplemented with 10% heat-inactivated fetal calf serum. The Jurkat cells were stimulated with mitogens (1 mg/ml of PHA and 50 ng/ml of PMA).
as §1

[9] = system: Jurkat human T-lymphocyte cells; experiment: Inhibition by cyclosporine A of IL-2 secretion from Jurkat cells, enhancement by peptides; assay type: cell-based; conditions: peptide added on top of cyclosporine, 24 hours
Procedure: The Jurkat human T-lymphocyte cells were cultured in RPMI 1640 medium supplemented with 10% heat-inactivated fetal calf serum. The Jurkat cells were stimulated with mitogens (1 mg/ml of PHA and 50 ng/ml of PMA). […] Each value represents the mean plus/minus the standard error of eight determinations. **p<0.01 and *p<0.05 compared to the cells treated only with the mitogens.
However, when Jurkat cells were stimulated with PHA and PMA, large quantities of interleukin-2 could be detected in the medium (FIG. 11).

[10] = rat, in vivo, iv; cited from earlier work

CO[C@H]1C[C@@H]2CC[C@@H](C)[C@@](O)(O2)C(=O)C(=O)N2CCCC[C@H]2C(=O)O[C@H]([C@H](C)C[C@@H]2CC[C@@H](O)[C@H](OC)C2)CC(=O)[C@H](C)/C=C(\C)[C@@H](O)[C@@H](OC)C(=O)[C@H](C)C[C@H](C)/C=C/C=C/C=C/1C [sirolimus, reference compound]
apoptotic cell death [1]: large significant increase in apoptotic cell death

PACAP27 (HSDGIFTDSYSRYRKQMAVKKYLAAVL-NH2; listed as Homo sapiens)
rate of proliferation of the human B-lymphocyte cell line [2]: significant dose-dependent inhibition

PACAP(6-38) (FTDSYSRYRKQMAVKKYLAAVLGKRYKQRVKNK; ends and bridges not checked; UniProt P18509 137-169, looked up, fragment) [a PACAP/VIP receptor antagonist]
growth of xenografts [3]: inhibited the growth
growth of xenografts [4]: inhibited the growth
growth of xenografts [5]: inhibited the growth

VIP (HSDAVFTDNYTRLRKQMAVKKYLNSILN-NH2; listed as Homo sapiens)
mitogen-induced secretion of interleukin-2 into the medium [6]: large significant inhibition
loss of viable human renal proximal tubule epithelial cells caused by tacrolimus [7]: significant dose-dependent reduction
rate of proliferation of the human T-lymphocyte cell line [8]: significant dose-dependent inhibition
cyclosporine-induced inhibition of interleukin-2 secretion [9]: small dose-dependent enhancement

[Aib^2]PACAP38 (H[Aib]DGIFTDSYSRYRKQMAVKKYLAAVLGKRYKQRVKNK; ends and bridges not checked)
rate of proliferation of the human T-lymphocyte cell line [8]: significant dose-dependent inhibition
rate of proliferation of the human B-lymphocyte cell line [2]: significant dose-dependent inhibition

[Ala^16,Ala^17,D-Lys^38]PACAP38 (HSDGIFTDSYSRYRKAAAVKKYLAAVLGKRYKQRVKN[dK]; ends and bridges not checked)
loss of viable human renal proximal tubule epithelial cells caused by tacrolimus [7]: significant dose-dependent reduction

[Ala^22]PACAP38 (HSDGIFTDSYSRYRKQMAVKKALAAVLGKRYKQRVKNK; ends and bridges not checked)
rate of proliferation of the human B-lymphocyte cell line [2]: significant dose-dependent inhibition

[D-Ser^2,Lys^38-palmitoyl]PACAP38 (H[dS]DGIFTDSYSRYRKQMAVKKYLAAVLGKRYKQRVKNK(Palmitoyl); not fully specified (C-terminus))
loss of viable human renal proximal tubule epithelial cells caused by tacrolimus [7]: significant dose-dependent reduction

[D-Ser^2]PACAP38 (H[dS]DGIFTDSYSRYRKQMAVKKYLAAVLGKRYKQRVKNK; not fully specified (C-terminus))
mitogen-induced secretion of interleukin-2 into the medium [6]: large significant inhibition
loss of viable human renal proximal tubule epithelial cells caused by tacrolimus [7]: significant dose-dependent reduction
rate of proliferation of the human T-lymphocyte cell line [8]: significant dose-dependent inhibition
cyclosporine-induced inhibition of interleukin-2 secretion [9]: small dose-dependent enhancement

[Lys^34]PACAP38 (HSDGIFTDSYSRYRKQMAVKKYLAAVLGKRYKQKVKNK; ends and bridges not checked)
rate of proliferation of the human B-lymphocyte cell line [2]: significant dose-dependent inhibition

[^125I]-PACAP38
half-life in the bloodstream [10]: 5 to 6 min
